The target in assay [1] is T1, Steryl-sulfatase (Homo sapiens, UniProt P08842).
T1 sequence (P08842 whole entry): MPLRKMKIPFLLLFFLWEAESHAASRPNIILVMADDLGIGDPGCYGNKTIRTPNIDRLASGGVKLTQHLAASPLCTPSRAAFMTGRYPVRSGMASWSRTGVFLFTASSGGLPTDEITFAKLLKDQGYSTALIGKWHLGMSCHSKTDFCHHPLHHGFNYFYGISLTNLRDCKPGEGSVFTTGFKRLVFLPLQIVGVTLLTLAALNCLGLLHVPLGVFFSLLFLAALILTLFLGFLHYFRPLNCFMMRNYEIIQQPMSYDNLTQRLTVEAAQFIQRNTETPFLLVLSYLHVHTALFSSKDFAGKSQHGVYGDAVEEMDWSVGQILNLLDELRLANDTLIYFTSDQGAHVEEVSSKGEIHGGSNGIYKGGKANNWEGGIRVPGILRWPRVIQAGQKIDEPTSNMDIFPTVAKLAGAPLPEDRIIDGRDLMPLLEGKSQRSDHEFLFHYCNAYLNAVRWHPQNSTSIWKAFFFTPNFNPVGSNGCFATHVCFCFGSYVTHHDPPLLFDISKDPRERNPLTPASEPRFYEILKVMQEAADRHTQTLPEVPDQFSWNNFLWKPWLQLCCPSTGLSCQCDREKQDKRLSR
Nature of the assay: Inhibition of steroid sulfatase in human MCF7 cells. It is filed as cell-based.

Assay [2] deals with T1, Steryl-sulfatase. Nature of the assay: Inhibition of steroid sulfatase derived form human placental microsomes. Also on record: species or system Placenta.
The target in assay [3] is T2, Carbonic anhydrase 2 (Homo sapiens, UniProt P00918). Kind of assay: Inhibition of human carbonic anhydrase 2.
In the next assay the target is Carbonic anhydrase 9 (Homo sapiens, UniProt Q16790). Kind of assay: Inhibition of human carbonic anhydrase 9.
The subject of assay [4] is MCF7. Kind of assay: Antiproliferative activity against human MCF7 cells. The assay is classed as functional, cell-based.
In assay [5] the test system is MDA-MB-231. Kind of assay: Antiproliferative activity against human MDA-MB-231 cells. The assay is classed as functional, cell-based.
In assay [6] the test system is Rattus norvegicus. Nature of the assay: In vivo inhibition of steroid sulfatase in Wistar rat at 10 mg/kg, po after 3 hrs relative to control. It is filed as functional.
The species named for assay [7] is Rattus norvegicus. Nature of the assay: animal or person. The conditions noted are these: Wistar, 3 h.
The test system of assay [8] is Rattus norvegicus. Nature of the assay: In vivo inhibition of aromatase in Wistar rat at 10 mg/kg, po after 3 hrs relative to control. The assay is classed as functional.
Assay [9] has as its system Rattus norvegicus. Nature of the assay: In vivo inhibition of steroid sulfatase in Wistar rat assessed as enzyme recovery at 10 mg/kg, sc single dose treated for 3 days measured after 1 week relative to control. Details: scale not given: the % may be the effect or the level left. It is filed as functional.
In assay [10] the test system is Rattus norvegicus. Kind of assay: In vivo inhibition of steroid sulfatase in Wistar rat assessed as enzyme recovery at 10 mg/kg, sc single dose treated for 10 days measured after 15 days relative to control. Also on record: scale not given: the % may be the effect or the level left. The assay is classed as functional.
For another assay, the target named is Carbonic anhydrase 4 (Homo sapiens, UniProt P22748). Kind of assay: Inhibition of human carbonic anhydrase 4.
Assay [11] has as its system MCF7. Nature of the assay: Antiproliferative activity against human MCF7 cells at 1 uM relative to control. The assay is classed as functional.
Assay [12] addresses T1, Steryl-sulfatase. Kind of assay: Inhibition of human placental steroid sulfatase.
In a further assay the target is Acetylcholinesterase (Electrophorus electricus, UniProt O42275). Kind of assay: Inhibition of electric ee AChE using acetylthiocholine iodide as substrate preincubated for 15 mins followed by substrate addition by Ellman's method. For orientation: In Ellman's method for cholinesterases, released thiocholine reacts with DTNB.
In another assay the target is Carbonic anhydrase 1 (Homo sapiens, UniProt P00915). Kind of assay: Inhibition of human carbonic anhydrase 1 using p-nitrophenylacetate as substrate after 3 mins.
For assay [13], the target named is T2, Carbonic anhydrase 2. Kind of assay: Inhibition of human carbonic anhydrase 2 using p-nitrophenylacetate as substrate after 3 mins.
The target of another assay is Cholinesterase (Equus caballus, UniProt P81908). Nature of the assay: Inhibition of equine BChE using butyrylthiocholine iodide as substrate preincubated for 15 mins followed by substrate addition by Ellman's method.
Assay [14] concerns the target T1, Steryl-sulfatase. Kind of assay: Inhibition of human placental steroid sulfatase expressed in HEK293 cells using [3H] E1S as substrate after 2 hrs by liquid scintillation counting method. It is filed as cell-based.
The target in assay [15] is T1, Steryl-sulfatase. Kind of assay: Inhibition of steroid sulfatase (unknown origin) expressed in human MCF7 cells. It is filed as cell-based.
Assay [16] addresses T1, Steryl-sulfatase. Kind of assay: Inhibition of steroid sulfatase (unknown origin) expressed in CHO cells. The assay is classed as cell-based.
Assay [17] relates to MDA-MB-231. Nature of the assay: Antiproliferative activity against estrogen receptor-negative human MDA-MB-231 cells. It is filed as functional, cell-based.
Assay [18] relates to MCF7. Nature of the assay: Antitumor activity against human MCF7 cells xenografted in MF-1 nude mouse assessed as tumor growth inhibition at 5 mg/kg, po treated for 4 weeks in presence of 2-deoxy-D-glucose by immunohistochemistry relative to control. It is filed as functional. To be noted: 672 h, read-out: TGI.
In assay [19] the test system is MCF7. Nature of the assay: Antiproliferative activity against estrogen receptor-positive human MCF7 cells. It is filed as functional, cell-based.
For assay [20], the target named is T1, Steryl-sulfatase. Kind of assay: Inhibition of steroid sulfatase (unknown origin).
The test system of assay [21] is Rattus norvegicus. Kind of assay: In vivo inhibition of steroid sulfatase in Wistar rat at 10 mg/kg, po relative to control. It is filed as functional.
For another assay, the species on record is Homo sapiens. Kind of assay: Selectivity ratio of IC50 for human carbonic anhydrase 1 to IC50 for human carbonic anhydrase 9.

As a reminder, the IC50 is the midpoint of a concentration-inhibition curve. The term Ki denotes the equilibrium dissociation constant of an inhibitor or competing ligand from its target.

Sequence of Carbonic anhydrase 4 (P22748 whole entry): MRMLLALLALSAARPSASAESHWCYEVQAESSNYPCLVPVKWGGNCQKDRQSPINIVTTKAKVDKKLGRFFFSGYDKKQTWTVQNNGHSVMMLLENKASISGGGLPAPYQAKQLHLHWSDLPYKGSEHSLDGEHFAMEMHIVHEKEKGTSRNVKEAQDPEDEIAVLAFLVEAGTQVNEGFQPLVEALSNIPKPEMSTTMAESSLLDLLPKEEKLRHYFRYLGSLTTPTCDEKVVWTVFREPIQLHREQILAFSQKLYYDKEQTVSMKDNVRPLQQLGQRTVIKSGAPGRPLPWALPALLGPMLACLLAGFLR
Sequence of Cholinesterase (P81908 whole entry): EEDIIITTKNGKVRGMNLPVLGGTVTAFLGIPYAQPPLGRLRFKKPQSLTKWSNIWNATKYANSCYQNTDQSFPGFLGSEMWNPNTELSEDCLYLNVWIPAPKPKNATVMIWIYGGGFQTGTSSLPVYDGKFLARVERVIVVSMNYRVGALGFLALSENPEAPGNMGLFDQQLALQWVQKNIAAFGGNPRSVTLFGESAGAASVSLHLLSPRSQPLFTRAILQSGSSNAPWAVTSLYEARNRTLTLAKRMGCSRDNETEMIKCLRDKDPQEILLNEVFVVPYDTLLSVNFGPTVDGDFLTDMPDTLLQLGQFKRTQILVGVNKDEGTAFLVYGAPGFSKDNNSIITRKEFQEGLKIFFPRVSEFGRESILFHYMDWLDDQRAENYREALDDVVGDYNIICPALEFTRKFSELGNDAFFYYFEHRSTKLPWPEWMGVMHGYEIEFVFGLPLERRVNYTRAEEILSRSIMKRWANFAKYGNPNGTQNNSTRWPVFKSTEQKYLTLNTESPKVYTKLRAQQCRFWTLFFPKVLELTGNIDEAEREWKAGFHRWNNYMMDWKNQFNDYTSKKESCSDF
Sequence of Carbonic anhydrase 1 (P00915 whole entry): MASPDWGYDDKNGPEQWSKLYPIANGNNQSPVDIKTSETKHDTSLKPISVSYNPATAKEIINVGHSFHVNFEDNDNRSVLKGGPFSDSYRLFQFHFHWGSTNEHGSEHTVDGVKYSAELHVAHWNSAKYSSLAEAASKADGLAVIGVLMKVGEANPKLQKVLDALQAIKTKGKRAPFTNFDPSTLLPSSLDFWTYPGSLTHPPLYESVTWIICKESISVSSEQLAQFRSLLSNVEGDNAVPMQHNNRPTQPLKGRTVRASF
Sequence of Acetylcholinesterase (O42275 whole entry): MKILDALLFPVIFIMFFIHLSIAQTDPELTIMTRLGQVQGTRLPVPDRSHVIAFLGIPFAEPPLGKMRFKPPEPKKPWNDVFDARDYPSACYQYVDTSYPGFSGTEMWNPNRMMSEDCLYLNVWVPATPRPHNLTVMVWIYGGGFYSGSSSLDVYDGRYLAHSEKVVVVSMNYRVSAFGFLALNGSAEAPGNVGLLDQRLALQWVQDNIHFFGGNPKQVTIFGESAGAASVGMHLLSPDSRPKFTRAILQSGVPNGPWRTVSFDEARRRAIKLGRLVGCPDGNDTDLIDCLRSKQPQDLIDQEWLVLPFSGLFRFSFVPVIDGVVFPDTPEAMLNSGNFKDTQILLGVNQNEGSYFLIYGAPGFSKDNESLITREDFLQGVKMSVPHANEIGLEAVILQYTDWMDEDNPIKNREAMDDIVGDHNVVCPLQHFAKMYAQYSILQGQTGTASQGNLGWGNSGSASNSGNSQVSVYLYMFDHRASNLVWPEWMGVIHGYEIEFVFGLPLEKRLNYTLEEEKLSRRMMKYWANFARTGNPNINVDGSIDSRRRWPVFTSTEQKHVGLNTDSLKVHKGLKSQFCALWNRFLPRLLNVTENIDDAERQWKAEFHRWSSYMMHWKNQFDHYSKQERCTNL

Turning to `Cc1c(Cc2ccccc2)c(=O)oc2cc(OS(N)(=O)=O)ccc12`, the figures for the IC50 against Steryl-sulfatase [1] and against Steryl-sulfatase [2] were 1 nM and 8 nM, respectively. Consider `NS(=O)(=O)Oc1ccc(NC2=NC(=O)/C(=C\c3cccc4ccccc34)S2)cc1`, for which the Ki at Carbonic anhydrase 2 [3] is 28.7 to 84.3 nM; on Carbonic anhydrase 9 it was 17.6 to 73.3 nM. Regarding `COc1ccc(/C=C2/SC(Nc3ccc(OS(N)(=O)=O)cc3)=NC2=O)cc1`, the Ki lay within 28.7 to 84.3 nM at Carbonic anhydrase 2 [3] and 17.6 to 73.3 nM at Carbonic anhydrase 9. The corresponding values for `Cc1ccc(/C=C2/SC(Nc3ccc(OS(N)(=O)=O)cc3)=NC2=O)cc1` are 28.7 to 84.3 nM and 17.6 to 73.3 nM. For the compound `CCc1cc2c(cc1OS(N)(=O)=O)CC[C@@H]1[C@@H]2CC[C@]2(C)[C@@H](OS(N)(=O)=O)CC[C@@H]12`, the values for the IC50 in the assay with MCF7 [4] and in the assay with MDA-MB-231 [5] were 70 nM and 80 nM, respectively.

Regarding `N#Cc1ccc(N(Cc2ccc3c(Br)c(OS(N)(=O)=O)ccc3c2)n2cnnc2)cc1`, the inhibition in vivo at 10 mg/kg with Rattus norvegicus [6] and in the assay with Rattus norvegicus [8] was 93% each time. This compound also returned an IC50 in the assay filed under Rattus norvegicus [7] of 205 nM. For `C[C@]12CC[C@@H]3c4ccc(OS(N)(=O)=O)cc4CC[C@H]3[C@@H]1CCC2=O` [EMATE], the Activity with Rattus norvegicus [9] is on record as 10 - 15%; in the assay with Rattus norvegicus [10], 30%. Turning to `NS(=O)(=O)Oc1ccc(NC2=NC(=O)/C(=C\c3ccc(Cl)cc3)S2)cc1`, the Ki on Carbonic anhydrase 2 [3] was in the range of 28.7 to 84.3 nM; on Carbonic anhydrase 9, 17.6 to 73.3 nM. In the case of `COc1cc(/C=C2/SC(Nc3ccc(OS(N)(=O)=O)cc3)=NC2=O)cc(OC)c1OC`, the figures for the Ki at Carbonic anhydrase 2 [3], at Carbonic anhydrase 4 and on Carbonic anhydrase 9 were 28.7 to 84.3 nM, 42.3 nM and 17.6 to 73.3 nM, respectively. `COc1cc2c(cc1OS(N)(=O)=O)CC[C@@H]1[C@@H]2CC[C@]2(C)C(=O)CC[C@@H]12`: in the assay on MCF7 [11], the Activity came to 52%.

For the compound `NS(=O)(=O)Oc1ccc(NC2=NC(=O)/C(=C\c3ccc(C(F)(F)F)cc3)S2)cc1`, the inhibition constant (Ki) at Carbonic anhydrase 2 [3] fell in the range of 28.7 to 84.3 nM; on Carbonic anhydrase 9, 17.6 to 73.3 nM. As for `NS(=O)(=O)Oc1ccc(CCNC(=O)C(F)(F)C(F)(F)C(F)(F)C(F)(F)C(F)(F)C(F)(F)C(F)(F)C(F)(F)C(F)(F)C(F)(F)F)cc1`, it took 2180 nM to reach half-maximal inhibition against Steryl-sulfatase [12] (IC50). Regarding `CC(C)[C@@H]1CC[C@@H](C)C[C@H]1OS(=O)(=O)NC(c1ccccc1)c1ccccc1`, the IC50 against Acetylcholinesterase was 206 nM; against Carbonic anhydrase 1 it was 44 nM; at Carbonic anhydrase 2 [13] it was 16 nM; on Cholinesterase, 246 nM.

For `CCCCCCC(O)(CCCCc1ccc(OS(N)(=O)=O)cc1)c1ccc(C(C)(C)C)cc1` (centres undefined), the IC50 at Steryl-sulfatase [14] came out at 0.4 nM. Turning to `NS(=O)(=O)Oc1ccc2nc(C=C3C4CC5CC(C4)CC3C5)oc2c1`, the IC50 against Steryl-sulfatase [15] and on Steryl-sulfatase [16] was 0.15 to 31.8 nM each time. Consider `NS(=O)(=O)Oc1ccc(NC2=NC(=O)/C(=C\c3ccc(F)cc3)S2)cc1`, for which the Ki on Carbonic anhydrase 2 [3] is 28.7 to 84.3 nM; on Carbonic anhydrase 9 it was 17.6 to 73.3 nM. `COc1cc2c(cc1OS(N)(=O)=O)CC[C@@H]1[C@@H]2CC[C@]2(C)[C@@H](OS(N)(=O)=O)CC[C@@H]12`: the results for the IC50 in the assay on MDA-MB-231 [17] and in the assay on MCF7 [19] were 290 nM and 250 nM, respectively. In addition, the inhibition in vivo at 5 mg/kg in the assay with MCF7 [18] came to 76%. In turn, `NS(=O)(=O)Oc1ccc2c3c(c(=O)oc2c1)CCCCCC3` registered an IC50 against Steryl-sulfatase [20] of 1 nM. As to `CCCCCCc1c(C)c2ccc(OS(N)(=O)=O)cc2oc1=O`, the results for the IC50 against Steryl-sulfatase [1] and at Steryl-sulfatase [2] were 0.68 nM and 32 nM, respectively. For `NS(=O)(=O)Oc1ccc(NC2=NC(=O)/C(=C\c3ccccc3)S2)cc1`, the Ki on Carbonic anhydrase 2 [3] was 28.7 to 84.3 nM; at Carbonic anhydrase 4, 76.1 nM; on Carbonic anhydrase 9, 17.6 to 73.3 nM. The compound `N#Cc1ccc(N(Cc2ccc(OS(N)(=O)=O)cc2)n2cnnc2)cc1` came in with an inhibition in vivo at 10 mg/kg in the assay on Rattus norvegicus [21] above 98%.

Consider `NS(=O)(=O)Oc1ccc(NC2=NC(=O)/C(=C\c3ccc([N+](=O)[O-])cc3)S2)cc1`, for which the Ki fell in the range of 28.7 to 84.3 nM on Carbonic anhydrase 2 [3] and 17.6 to 73.3 nM at Carbonic anhydrase 9. `NS(=O)(=O)Oc1ccc(/C=C/C(=O)C[C@@H]2O[C@H](CO)[C@@H](O)[C@H](O)[C@H]2O)cc1`: the Ratio IC50 in the assay listed under Homo sapiens stood at 3.38. The same compound came in with an IC50 on Carbonic anhydrase 9 of 101 nM. Regarding `NS(=O)(=O)Oc1ccc2ccc(=O)oc2c1`, the IC50 against Steryl-sulfatase [12] is 2130 nM. At Steryl-sulfatase [20], `Cc1cc(=O)oc2cc(OS(N)(=O)=O)ccc12` registered a half-maximal inhibitory concentration (IC50) of 30 nM.

(Values after ChEMBL document CHEMBL4396908, “Sulfamates in drug design and discovery: Pre-clinical and clinical investigations” (Eur J Med Chem, 2019).)
